Patent US20240342292A1, “Compounds for the Degradation of EGFR Kinase” (BeiGene Switzerland GmbH, priority 2021, published 2024)

Key:
[1] = test system: Del19/T790M/C797S EGFR; experiment: EGFR degradation HTRF assay in H1975-clone #28 (DTC) cells; type: cell-based; settings: H1975 # 28 DTC (Del19/T790M/C797S), 16h treatment; for DC50: HTRF; for Dmax (%): maximum percentage of degradation
Outline: (§1)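 Engineered H1975 lines (exogenous mutant EGFR, endogenous copies knocked out, single clones sequence-verified); 16 h compound, 37 °C/5% CO2, 0.2% DMSO; top 10 uM, 5-fold, 8 pts; lysis 1 h RT, HTRF antibodies overnight RT; 4-parameter logistic fit → DC50.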

[2] = biological target: T1, L858R/T790M/C797S EGFR (Homo sapiens, UniProt P00533, C797S/L858R/T790M); experiment: EGFR degradation HTRF assay in H1975-clone #25 (LTC) cells; type: cell-based; settings: 16h treatment; for DC50: H1975 # 25-LTC (L858R/T790M/C797S), HTRF; for Dmax: NCI-H1975, H1975 # 25-LTC (L858R/T790M/C797S), maximum percentage of degradation
T1 construct: expressed in transfected cells; host or cells: H1975 clone #25 (lentiviral over-expression, endogenous EGFR knocked out by sgRNA)
Outline: as §1

T1 sequence (P00533 25-1210 T790M/C797S/L858R): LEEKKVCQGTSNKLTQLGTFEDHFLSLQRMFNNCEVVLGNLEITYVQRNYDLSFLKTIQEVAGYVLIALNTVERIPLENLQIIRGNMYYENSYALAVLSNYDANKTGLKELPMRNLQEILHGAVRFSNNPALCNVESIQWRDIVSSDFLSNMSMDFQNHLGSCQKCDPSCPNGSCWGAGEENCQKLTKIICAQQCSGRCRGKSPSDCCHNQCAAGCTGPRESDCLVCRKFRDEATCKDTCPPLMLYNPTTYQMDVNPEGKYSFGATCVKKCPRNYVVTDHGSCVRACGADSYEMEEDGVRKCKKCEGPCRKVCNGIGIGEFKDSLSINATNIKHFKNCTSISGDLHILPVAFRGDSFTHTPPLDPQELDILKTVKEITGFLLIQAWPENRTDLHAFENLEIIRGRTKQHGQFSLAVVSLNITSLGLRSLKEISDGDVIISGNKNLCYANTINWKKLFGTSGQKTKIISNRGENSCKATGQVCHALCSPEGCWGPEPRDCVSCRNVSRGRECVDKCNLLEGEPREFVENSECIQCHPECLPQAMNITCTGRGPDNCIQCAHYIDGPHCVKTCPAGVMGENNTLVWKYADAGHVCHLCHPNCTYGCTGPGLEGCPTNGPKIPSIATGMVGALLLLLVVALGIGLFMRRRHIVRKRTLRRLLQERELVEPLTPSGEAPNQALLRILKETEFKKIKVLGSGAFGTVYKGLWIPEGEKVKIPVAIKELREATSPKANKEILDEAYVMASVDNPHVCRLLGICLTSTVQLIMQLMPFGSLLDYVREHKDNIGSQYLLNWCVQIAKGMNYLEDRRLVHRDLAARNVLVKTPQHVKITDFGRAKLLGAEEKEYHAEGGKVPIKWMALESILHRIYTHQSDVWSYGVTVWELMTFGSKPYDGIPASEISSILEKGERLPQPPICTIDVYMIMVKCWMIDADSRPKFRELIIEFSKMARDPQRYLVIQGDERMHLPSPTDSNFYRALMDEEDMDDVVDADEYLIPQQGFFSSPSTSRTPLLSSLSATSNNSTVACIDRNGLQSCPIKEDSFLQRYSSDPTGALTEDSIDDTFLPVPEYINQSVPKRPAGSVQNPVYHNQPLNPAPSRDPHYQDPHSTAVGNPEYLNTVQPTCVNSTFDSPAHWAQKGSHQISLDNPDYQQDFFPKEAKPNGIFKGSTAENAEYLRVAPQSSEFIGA

| DC50 [1] [nM] | DC50 [2] [nM] | Dmax [2] [%] | SMILES | Dmax (%) [1] [%] |
| --- | --- | --- | --- | --- |
| 1.09 | 3.17 | 83.7 | Cc1cc2cc(n1)-c1cnn(C)c1OCCC[C@@H](C)CN1/C(=N/C2=O)Nc2ccc(C3CCN(C(=O)[C@H]4CN(c5cc(F)c([C@H]6CCC(=O)NC6=O)c(F)c5)CC4(C)C)CC3)cc21 [Example 327, (R)-3-(4-((R)-3,3-dimethyl-4-(4-((R,E)-1^1,2^6,7-trimethyl-3-oxo-5^2,53-dihydro-1^1H,5^1H-11-oxa-4-aza-5(2,1)-benzo[d]imidazola-2(2,4)-pyridina-1(4,5)-pyrazolacycloundecaphane-5^6-yl)piperidine-1-carbonyl)pyrrolidin-1-yl)-2,6-difluorophenyl)piperidine-2,6-dione] | 74.51 |
| 2.19 | 2.97 | 78.7 | Cc1cc2cc(n1)-c1cnn(C)c1OCCC[C@@H](C)CN1/C(=N/C2=O)Nc2cc(F)c(C3CCN(C(=O)[C@@H]4CCN(c5cc(F)c(C6CCC(=O)NC6=O)c(F)c5)C4)CC3)cc21 (stereo partly drawn) [Example 329, (R)-3-(2,6-difluoro-4-((R)-3-(4-((R,E)-5^5-fluoro-1^1,2^6,7-trimethyl-3-oxo-5^2,5^3-dihydro-1^1H,5^1H-11-oxa-4-aza-5(2,1)-benzo[d]imidazola-2(2,4)-pyridina-1(4,5)-pyrazolacycloundecaphane-5^6-yl)piperidine-1-carbonyl)pyrrolidin-1-yl)phenyl)piperidine-2,6-dione] | 68.61 |
| 0.633 | 0.972 | 87.1 | Cc1cc2cc(n1)-c1cnn(C)c1OCCC[C@@H](C)CN1/C(=N/C2=O)Nc2ccc(C3CCN(CCc4cc(F)c([C@H]5CCC(=O)NC5=O)c(F)c4)CC3)cc21 [Example 330, (R)-3-(2,6-difluoro-4-(2-(4-((R,E)-1^1,2^6,7-trimethyl-3-oxo-5^2,5^3-dihydro-1^1H,5^1H-11-oxa-4-aza-5(2,1)-benzo[d]imidazola-2(2,4)-pyridina-1(4,5)-pyrazolacycloundecaphane-5^6-yl)piperidin-1-yl)ethyl)phenyl)piperidine-2,6-dione] | 66.1 |
| 1.33 | 0.71 | 97.1 | Cc1cc2cc(n1)-c1cnn(C)c1OCCC[C@@H](C)CN1/C(=N/C2=O)Nc2ccc(C3CCN(CC4CN(c5cc(F)c([C@H]6CCC(=O)NC6=O)c(F)c5)C4)CC3)cc21 [Example 331, (R)-3-(2,6-difluoro-4-(3-((4-((R,E)-1^1,2^6,7-trimethyl-3-oxo-5^2,53-dihydro-1^1H,5^1H-11-oxa-4-aza-5(2,1)-benzo[d]imidazola-2(2,4)-pyridina-1(4,5)-pyrazolacycloundecaphane-5-yl)piperidin-1-yl)methyl)azetidin-1-yl)phenyl)piperidine-2,6-dione] | 73.69 |
| 1.31 | 0.995 | 91.2 | Cc1cc2cc(n1)-c1cnn(C)c1OCCC[C@@H](C)CN1/C(=N/C2=O)Nc2ccc(C3CCN(C4CCN(c5cc(F)c([C@H]6CCC(=O)NC6=O)c(F)c5)CC4)CC3)cc21 [Example 332, (R)-3-(2,6-difluoro-4-(4-((R,E)-1^1,2^6,7-trimethyl-3-oxo-5^2,5^3-dihydro-1^1H,5^1H-11-oxa-4-aza-5(2,1)-benzo[d]imidazola-2(2,4)-pyridina-1(4,5)-pyrazolacycloundecaphane-5^6-yl)-[1,4′-bipiperidin]-1′-yl)phenyl)piperidine-2,6-dione] | 86.39 |
| 0.684 | 0.687 | 86.1 | Cc1cc2cc(n1)-c1cnn(C)c1OCCC[C@@H](C)CN1/C(=N/C2=O)Nc2ccc(N3CCC(C(=O)N4CCN(c5cc(F)c([C@H]6CCC(=O)NC6=O)c(F)c5)CC4)CC3)cc21 [Example 333, (R)-3-(2,6-difluoro-4-(4-(1-((R,E)-1^1,2^6,7-trimethyl-3-oxo-5^2,5^3-dihydro-1^1H,5^1H-11-oxa-4-aza-5(2,1)-benzo[d]imidazola-2(2,4)-pyridina-1(4,5)-pyrazolacycloundecaphane-5^6-yl)piperidine-4-carbonyl)piperazin-1-yl)phenyl)piperidine-2,6-dione] | 75.17 |
| 0.789 | 0.657 | 79.4 | Cc1cc2cc(n1)-c1cnn(C)c1OCCC[C@@H](C)CN1/C(=N/C2=O)Nc2ccc(N3CCC(C(=O)N(C)CCc4cc(F)c([C@H]5CCC(=O)NC5=O)c(F)c4)CC3)cc21 [Example 335, N-(4-((R)-2,6-dioxopiperidin-3-yl)-3,5-difluorophenethyl)-N-methyl-1-((R,E)-1^1,2^6,7-trimethyl-3-oxo-5^2,5^3-dihydro-1^1H,5^1H-11-oxa-4-aza-5(2,1)-benzo[d]imidazola-2(2,4)-pyridina-1(4,5)-pyrazolacycloundecaphane-5^6-yl)piperidine-4-carboxamide] | 60.16 |

The remaining lines, values behind:

| SMILES | DC50 [1] [nM] | DC50 [2] [nM] | Dmax [2] [%] | Dmax (%) [1] [%] |
| --- | --- | --- | --- | --- |
| Cc1cc2cc(n1)-c1cnn(C)c1OCCC[C@@H](C)CN1/C(=N/C2=O)Nc2ccc(CN(C)[C@H]3CCCN(C(=O)[C@@H]4CCN(c5cc(F)c([C@H]6CCC(=O)NC6=O)c(F)c5)C4)C3)cc21 [Example 319, (R)-3-(2,6-difluoro-4-((R)-3-((S)-3-(methyl(((R,E)-1^1,2^6,7-trimethyl-3-oxo-5^2,5^3-dihydro-1^1H,5′ H-11-oxa-4-aza-5(2,1)-benzo[d]imidazola-2(2,4)-pyridina-1(4,5)-pyrazolacycloundecaphane-5^6-yl)methyl)amino)piperidine-1-carbonyl)pyrrolidin-1-yl)phenyl)piperidine-2,6-dione] | 0.643 | 1.26 | 83.4 | 74.25 |
| Cc1cc2cc(n1)-c1cnn(C)c1OCCC[C@@H](C)CN1/C(=N/C2=O)Nc2ccc(N3CCN(CCc4cc(F)c([C@H]5CCC(=O)NC5=O)c(F)c4)CC3)cc21 [Example 320, (R)-3-(2,6-difluoro-4-(2-(4-((R,E)-1^1,26,7-trimethyl-3-oxo-5^2,5^3-dihydro-1^1H,5^1H-11-oxa-4-aza-5(2,1)-benzo[d]imidazola-2(2,4)-pyridina-1(4,5)-pyrazolacycloundecaphane-5^6-yl)piperazin-1-yl)ethyl)phenyl)piperidine-2,6-dione] | 0.674 | 0.591 | 86.2 | 71.04 |
| Cc1cc2cc(n1)-c1cnn(C)c1OCCC[C@@H](C)CN1/C(=N/C2=O)Nc2ccc(N3CCN(CC4CN(c5cc(F)c([C@H]6CCC(=O)NC6=O)c(F)c5)C4)CC3)cc21 [Example 321, (R)-3-(2,6-difluoro-4-(3-((4-((R,E)-1^1,2^6,7-trimethyl-3-oxo-5^2,5^3-dihydro-1^1H,5^1H-11-oxa-4-aza-5(2,1)-benzo[d]imidazola-2(2,4)-pyridina-1(4,5)-pyrazolacycloundecaphane-5^6-yl)piperazin-1-yl)methyl)azetidin-1-yl)phenyl)piperidine-2,6-dione] | 1.18 | 1.17 | 88.2 | 73.52 |
| Cc1cc2cc(n1)-c1cnn(C)c1OCCC[C@@H](C)CN1/C(=N/C2=O)Nc2ccc(N3CCN(CC4CCN(c5cc(F)c([C@H]6CCC(=O)NC6=O)c(F)c5)CC4)CC3)cc21 [Example 322, (R)-3-(2,6-difluoro-4-(4-((4-((R,E)-1^1,2^6,7-trimethyl-3-oxo-5^2,5^3-dihydro-1^1H,5^1H-11-oxa-4-aza-5(2, 1)-benzo[d]imidazola-2(2,4)-pyridina-1(4,5)-pyrazolacycloundecaphane-5^6-yl)piperazin-1-yl)methyl)piperidin-1-yl)phenyl)piperidine-2,6-dione] | 0.934 | 1.21 | 86.8 | 74.99 |
| Cc1cc2cc(n1)-c1cnn(C)c1OCCC[C@@H](C)CN1/C(=N/C2=O)Nc2ccc(C3CCN(CC4CCN(c5cc(F)c([C@H]6CCC(=O)NC6=O)c(F)c5)CC4)CC3)cc21 [Example 323, (R)-3-(2,6-difluoro-4-(4-((4-((R,E)-1^1,2^6,7-trimethyl-3-oxo-5^2,5^3-dihydro-1^1H,5^1H-11-oxa-4-aza-5(2,1)-benzo[d]imidazola-2(2,4)-pyridina-1(4,5)-pyrazolacycloundecaphane-5^6-yl)piperidin-1-yl)methyl)piperidin-1-yl)phenyl)piperidine-2,6-dione] | 1.03 | 1.03 | 63.9 | 49.97 |
| Cc1cc2cc(n1)-c1cnn(C)c1OCCC[C@@H](C)CN1/C(=N/C2=O)Nc2ccc(N3CCN(C4CCN(c5cc(F)c([C@H]6CCC(=O)NC6=O)c(F)c5)CC4)CC3)cc21 [Example 324, (R)-3-(2,6-difluoro-4-(4-(4-((R,E)-1^1,26,7-trimethyl-3-oxo-5^2,5^3-dihydro-1^1H,5^1H-11-oxa-4-aza-5(2, 1)-benzo[d]imidazola-2(2,4)-pyridina-1(4,5)-pyrazolacycloundecaphane-5^6-yl)piperazin-1-yl)piperidin-1-yl)phenyl)piperidine-2,6-dione] | 0.859 | 1.02 | 91.1 | 78.7 |
| Cc1cc2cc(n1)-c1cnn(C)c1OCCC[C@@H](C)CN1/C(=N/C2=O)Nc2ccc(N3CCN(C(=O)[C@@H]4CN(c5cc(F)c([C@H]6CCC(=O)NC6=O)c(F)c5)CC4(C)C)CC3)cc21 [Example 326, (R)-3-(4-((S)-3,3-dimethyl-4-(4-((R,E)-1^1,2^6,7-trimethyl-3-oxo-5^2,5′-dihydro-1^1H,5^1H-11-oxa-4-aza-5(2,1)-benzo[d]imidazola-2(2,4)-pyridina-1(4,5)-pyrazolacycloundecaphane-5^6-yl)piperazine-1-carbonyl)pyrrolidin-1-yl)-2,6-difluorophenyl)piperidine-2,6-dione] | 1.71 | 1.88 | 88.9 | 81.61 |
